Assay: xn = mol fraction of the nth substance listed
Settings: for mass density / viscosity: 100 kPa, Liquid; for mass density: Vibrating tube method; for surface tension liquid-gas: Drop volume

CCC12CC3CC(CC(C3)C1)C2 [1-ethyladamantane] + OCC1CCCCC1
Settings | mass density [kg/m3] | surface tension liquid-gas [mN/m] | viscosity [mPa·s]
293.15 K, x2 = 0 | 937.11 | – | 6.371
293.15 K, x2 = 0.1 | 936.13 | – | 6.695
293.15 K, x2 = 0.2002 | 935.23 | – | 7.433
293.15 K, x2 = 0.2997 | 934.37 | – | 8.368
293.15 K, x2 = 0.3999 | 933.76 | – | 9.674
293.15 K, x2 = 0.4998 | 933.1 | – | 11.54
293.15 K, x2 = 0.5989 | 932.54 | – | 14.09
293.15 K, x2 = 0.7001 | 931.93 | – | 17.67
293.15 K, x2 = 0.8023 | 931.24 | – | 23.66
293.15 K, x2 = 0.8996 | 930.57 | – | 29.61
298.15 K, x2 = 0 | 933.58 | 29.87 | 5.565
298.15 K, x2 = 0.1 | 932.5 | 30.21 | 5.776
298.15 K, x2 = 0.2002 | 931.58 | 30.84 | 6.348
298.15 K, x2 = 0.2997 | 930.72 | 30.99 | 7.083
298.15 K, x2 = 0.3999 | 930.09 | 31.23 | 8.081
298.15 K, x2 = 0.4998 | 929.43 | 31.51 | 9.483
298.15 K, x2 = 0.5989 | 928.87 | 31.86 | 11.38
298.15 K, x2 = 0.7001 | 928.31 | 31.98 | 14.04
298.15 K, x2 = 0.8023 | 927.68 | 32.1 | 18.53
298.15 K, x2 = 0.8996 | 927 | 32.21 | 22.86
303.15 K, x2 = 0 | 929.99 | – | 4.903
303.15 K, x2 = 0.1 | 928.84 | – | 5.033
303.15 K, x2 = 0.2002 | 927.89 | – | 5.484
303.15 K, x2 = 0.2997 | 927.06 | – | 6.058
303.15 K, x2 = 0.3999 | 926.4 | – | 6.832
303.15 K, x2 = 0.4998 | 925.74 | – | 7.675
303.15 K, x2 = 0.5989 | 925.17 | – | 9.337
303.15 K, x2 = 0.7001 | 924.63 | – | 11.31
303.15 K, x2 = 0.8023 | 924.04 | – | 14.75
303.15 K, x2 = 0.8996 | 923.4 | – | 18.07
308.15 K, x2 = 0 | 926.4 | – | 4.348
308.15 K, x2 = 0.1 | 925.16 | – | 4.417
308.15 K, x2 = 0.2002 | 924.2 | – | 4.772
308.15 K, x2 = 0.2997 | 923.39 | – | 5.224
308.15 K, x2 = 0.3999 | 922.68 | – | 5.833
308.15 K, x2 = 0.4998 | 922.03 | – | 6.657
308.15 K, x2 = 0.5989 | 921.45 | – | 7.748
308.15 K, x2 = 0.7001 | 920.92 | – | 9.236
308.15 K, x2 = 0.8023 | 920.38 | – | 11.88
308.15 K, x2 = 0.8996 | 919.77 | – | 14.39
313.15 K, x2 = 0 | 922.81 | – | 3.878
313.15 K, x2 = 0.1 | 921.48 | – | 3.897
313.15 K, x2 = 0.2002 | 920.49 | – | 4.182
313.15 K, x2 = 0.2997 | 919.69 | – | 4.542
313.15 K, x2 = 0.3999 | 918.95 | – | 5.016
313.15 K, x2 = 0.4998 | 918.29 | – | 5.663
313.15 K, x2 = 0.5989 | 917.71 | – | 6.499
313.15 K, x2 = 0.7001 | 917.19 | – | 7.629
313.15 K, x2 = 0.8023 | 916.67 | – | 9.75
313.15 K, x2 = 0.8996 | 916.12 | – | 11.66
318.15 K, x2 = 0 | 919.21 | – | 3.478
318.15 K, x2 = 0.1 | 917.79 | – | 3.463
318.15 K, x2 = 0.2002 | 916.77 | – | 3.688
318.15 K, x2 = 0.2997 | 915.95 | – | 3.973
318.15 K, x2 = 0.3999 | 915.2 | – | 4.35
318.15 K, x2 = 0.4998 | 914.53 | – | 4.857
318.15 K, x2 = 0.5989 | 913.94 | – | 5.504
318.15 K, x2 = 0.7001 | 913.43 | – | 6.374
318.15 K, x2 = 0.8023 | 912.93 | – | 8.051
318.15 K, x2 = 0.8996 | 912.44 | – | 9.556
323.15 K, x2 = 0 | 915.62 | – | 3.134
323.15 K, x2 = 0.1 | 914.09 | – | 3.094
323.15 K, x2 = 0.2002 | 913.03 | – | 3.27
323.15 K, x2 = 0.2997 | 912.19 | – | 3.497
323.15 K, x2 = 0.3999 | 911.42 | – | 3.798
323.15 K, x2 = 0.4998 | 910.75 | – | 4.199
323.15 K, x2 = 0.5989 | 910.15 | – | 4.707
323.15 K, x2 = 0.7001 | 909.63 | – | 5.378
323.15 K, x2 = 0.8023 | 909.16 | – | 6.705
323.15 K, x2 = 0.8996 | 908.7 | – | 7.906
328.15 K, x2 = 0 | 912.01 | – | 2.838
328.15 K, x2 = 0.1 | 910.38 | – | 2.777
328.15 K, x2 = 0.2002 | 909.27 | – | 2.915
328.15 K, x2 = 0.2997 | 908.41 | – | 3.096
328.15 K, x2 = 0.3999 | 907.62 | – | 3.338
328.15 K, x2 = 0.4998 | 906.94 | – | 3.657
328.15 K, x2 = 0.5989 | 906.33 | – | 4.059
328.15 K, x2 = 0.7001 | 905.81 | – | 4.581
328.15 K, x2 = 0.8023 | 905.35 | – | 5.629
328.15 K, x2 = 0.8996 | 904.92 | – | 6.508
333.15 K, x2 = 0 | 908.41 | – | 2.581
333.15 K, x2 = 0.1 | 906.65 | – | 2.507
333.15 K, x2 = 0.2002 | 905.5 | – | 2.613
333.15 K, x2 = 0.2997 | 904.61 | – | 2.756
333.15 K, x2 = 0.3999 | 903.81 | – | 2.952
333.15 K, x2 = 0.4998 | 903.1 | – | 3.208
333.15 K, x2 = 0.5989 | 902.49 | – | 3.525
333.15 K, x2 = 0.7001 | 901.96 | – | 3.935
333.15 K, x2 = 0.8023 | 901.5 | – | 4.674
333.15 K, x2 = 0.8996 | 901.1 | – | 5.472

Source: the NIST ThermoML archive (doi:10.1021/je500381c)
